{
  "source": "patent US7279161B2",
  "about": "“Factor IX/factor IXa activating antibodies and antibody derivatives” (Baxter Aktiengesellschaft, priority 1999, dated 2007)",
  "key": {"FVIII inhibitor plasma": {"tested_on": "FVIII inhibitor plasma", "assay": "aPTT based one stage clotting assay in FVIII inhibitor plasma", "assay_type": "biochemical", "details": "inhibitor plasma 8.1 Bethesda Units per ml", "description": "[…] […] […] After a 4 minute incubation, the reaction was started by the addition of 100 μl CaCl2 (25 mM). To ensure equal conditions, the experiments employing FVIII deficient plasma and FVIII inhibitor plasma were done side by side.\nTo assay for the procoagulant activity of peptide A1/3 in FVIII inhibitor plasma the following experiment was carried out. We performed a standard aPTT based one stage clotting assay, but instead of FVIII deficient plasma we employed FVIII inhibitor plasma."}, "human FIXa": {"target": "T1, human FIXa (Homo sapiens, UniProt P00740)", "T1 construct": "with (+) and without (−) addition of 50 ng human FIXaβ; purchased ERL (Enzyme Research Laboratories)", "T1 sequence (P00740 47-191 limits assumed)": "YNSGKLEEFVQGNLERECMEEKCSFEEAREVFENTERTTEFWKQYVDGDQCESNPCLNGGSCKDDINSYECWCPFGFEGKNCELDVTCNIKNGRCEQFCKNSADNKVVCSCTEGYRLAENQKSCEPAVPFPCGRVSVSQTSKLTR", "T1 sequence (P00740 227-461 limits assumed)": "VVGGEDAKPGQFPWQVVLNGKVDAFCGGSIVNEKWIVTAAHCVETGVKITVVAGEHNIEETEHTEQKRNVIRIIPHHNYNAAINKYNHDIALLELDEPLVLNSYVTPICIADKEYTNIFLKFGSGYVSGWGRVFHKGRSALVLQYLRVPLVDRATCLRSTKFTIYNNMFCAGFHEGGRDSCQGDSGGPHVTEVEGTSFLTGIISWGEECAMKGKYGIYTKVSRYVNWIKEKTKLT", "assay": "Chromogenic FVIII-like (FXa generation) assay with human FIXa added", "assay_type": "biochemical", "outline": "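FXa generation at 37 °C with bovine FIXa/FX plus phospholipids, 25 mM CaCl2 stock, S-2222 substrate and thrombin inhibitor I-2581; 50 ng human FIXa added per reaction. Absorbance at 405 and 490 nm read from 5 min to 2 h against a reagent blank.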"}},
  "data": [
    {"sequence": "RRREGGGYYVNWYFDRRR [A1/3]", "values": [
      {"measurement": "average clotting time", "setting": "FVIII inhibitor plasma; 1.25 μM, 2.2 nM FIXa", "result": 91, "unit": "s"},
      {"measurement": "clotting time", "setting": "FVIII inhibitor plasma; 1.25 μM, 2.2 nM FIXa, duplicate 1", "result": 91.3, "unit": "s"},
      {"measurement": "clotting time", "setting": "FVIII inhibitor plasma; 1.25 μM, 2.2 nM FIXa, duplicate 2", "result": 91.4, "unit": "s"},
      {"measurement": "average clotting time", "setting": "FVIII inhibitor plasma; 1.25 μM, w/o FIXa", "result": 104, "unit": "s"},
      {"measurement": "clotting time", "setting": "FVIII inhibitor plasma; 1.25 μM, w/o FIXa, duplicate 1", "result": 104.5, "unit": "s"},
      {"measurement": "clotting time", "setting": "FVIII inhibitor plasma; 1.25 μM, w/o FIXa, duplicate 2", "result": 104.3, "unit": "s"},
      {"measurement": "average clotting time", "setting": "FVIII inhibitor plasma; 2.5 μM, 2.2 nM FIXa", "result": 90, "unit": "s"},
      {"measurement": "clotting time", "setting": "FVIII inhibitor plasma; 2.5 μM, 2.2 nM FIXa, duplicate 1", "result": 90.2, "unit": "s"},
      {"measurement": "clotting time", "setting": "FVIII inhibitor plasma; 2.5 μM, 2.2 nM FIXa, duplicate 2", "result": 90.5, "unit": "s"},
      {"measurement": "average clotting time", "setting": "FVIII inhibitor plasma; 2.5 μM, w/o FIXa", "result": 106, "unit": "s"},
      {"measurement": "clotting time", "setting": "FVIII inhibitor plasma; 2.5 μM, w/o FIXa, duplicate 1", "result": 106.1, "unit": "s"},
      {"measurement": "clotting time", "setting": "FVIII inhibitor plasma; 2.5 μM, w/o FIXa, duplicate 2", "result": 105.3, "unit": "s"},
      {"measurement": "average clotting time", "setting": "FVIII inhibitor plasma; 5 μM, 2.2 nM FIXa", "result": 82, "unit": "s"},
      {"measurement": "clotting time", "setting": "FVIII inhibitor plasma; 5 μM, 2.2 nM FIXa, duplicate 1", "result": 81, "unit": "s"},
      {"measurement": "clotting time", "setting": "FVIII inhibitor plasma; 5 μM, 2.2 nM FIXa, duplicate 2", "result": 82, "unit": "s"},
      {"measurement": "average clotting time", "setting": "FVIII inhibitor plasma; 5 μM, w/o FIXa", "result": 101, "unit": "s"},
      {"measurement": "clotting time", "setting": "FVIII inhibitor plasma; 5 μM, w/o FIXa, duplicate 1", "result": 101.5, "unit": "s"},
      {"measurement": "clotting time", "setting": "FVIII inhibitor plasma; 5 μM, w/o FIXa, duplicate 2", "result": 101.1, "unit": "s"},
      {"measurement": "average clotting time", "setting": "FVIII inhibitor plasma; 7.5 μM, 2.2 nM FIXa", "result": 70, "unit": "s"},
      {"measurement": "clotting time", "setting": "FVIII inhibitor plasma; 7.5 μM, 2.2 nM FIXa, duplicate 1", "result": 68.8, "unit": "s"},
      {"measurement": "clotting time", "setting": "FVIII inhibitor plasma; 7.5 μM, 2.2 nM FIXa, duplicate 2", "result": 70.9, "unit": "s"},
      {"measurement": "average clotting time", "setting": "FVIII inhibitor plasma; 7.5 μM, w/o FIXa", "result": 93, "unit": "s"},
      {"measurement": "clotting time", "setting": "FVIII inhibitor plasma; 7.5 μM, w/o FIXa, duplicate 1", "result": 93.7, "unit": "s"},
      {"measurement": "clotting time", "setting": "FVIII inhibitor plasma; 7.5 μM, w/o FIXa, duplicate 2", "result": 92.7, "unit": "s"},
      {"measurement": "average clotting time", "setting": "FVIII inhibitor plasma; 10 μM, 2.2 nM FIXa", "result": 62, "unit": "s"},
      {"measurement": "clotting time", "setting": "FVIII inhibitor plasma; 10 μM, 2.2 nM FIXa, duplicate 1", "result": 61.3, "unit": "s"},
      {"measurement": "clotting time", "setting": "FVIII inhibitor plasma; 10 μM, 2.2 nM FIXa, duplicate 2", "result": 61.8, "unit": "s"},
      {"measurement": "average clotting time", "setting": "FVIII inhibitor plasma; 10 μM, w/o FIXa", "result": 88, "unit": "s"},
      {"measurement": "clotting time", "setting": "FVIII inhibitor plasma; 10 μM, w/o FIXa, duplicate 1", "result": 88.4, "unit": "s"},
      {"measurement": "clotting time", "setting": "FVIII inhibitor plasma; 10 μM, w/o FIXa, duplicate 2", "result": 87.9, "unit": "s"},
      {"measurement": "average clotting time", "setting": "FVIII inhibitor plasma; 12.5 μM, 2.2 nM FIXa", "result": 61, "unit": "s"},
      {"measurement": "clotting time", "setting": "FVIII inhibitor plasma; 12.5 μM, 2.2 nM FIXa, duplicate 1", "result": 61, "unit": "s"},
      {"measurement": "clotting time", "setting": "FVIII inhibitor plasma; 12.5 μM, 2.2 nM FIXa, duplicate 2", "result": 60.2, "unit": "s"},
      {"measurement": "average clotting time", "setting": "FVIII inhibitor plasma; 12.5 μM, w/o FIXa", "result": 86, "unit": "s"},
      {"measurement": "clotting time", "setting": "FVIII inhibitor plasma; 12.5 μM, w/o FIXa, duplicate 1", "result": 85.8, "unit": "s"},
      {"measurement": "clotting time", "setting": "FVIII inhibitor plasma; 12.5 μM, w/o FIXa, duplicate 2", "result": 85.3, "unit": "s"},
      {"measurement": "chromogenic FVIII-like activity (FXa generation)", "setting": "human FIXa; 2.9 nM human FIXa", "result": "readily measurable FXa generation"},
      {"measurement": "chromogenic activity", "setting": "human FIXa; 12 μM peptide, 2.3 nM human FIXa", "result": "virtually unchanged"},
      {"measurement": "chromogenic FVIII-like activity", "setting": "human FIXa; 24 μM, with vs without 2.3 nM human FIXa", "result": "the reaction takes place only in the presence of human FIXa"}
    ]}
  ]
}
